System: Hs578T complex spheroid growth, percent test/control
Experiment: Anticancer human tumor Hs578T cell line growth inhibition [AhR];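 also: luminescent viability signal as a proxy for spheroid growth; spheroids exposed to agents for one week after three days of growth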
Conditions: for IC50: curve of first compound; for viability, T/C: stronger effect = lower value
How it was run: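 Complex tumor spheroids co-cultured with HUVEC and human MSC stroma; AhR antagonists tested in combination with standard-of-care and investigational agents. Top concentration at or near clinical Cmax (else 10 microM), half-log dilutions; growth expressed as percent test/control.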

[1] = second compound 0.1 µM, first compound 0.0316 µM
[2] = second compound 0.1 µM, first compound 0.1 µM
[3] = second compound 0.1 µM, first compound 0.316 µM
[4] = second compound 0.1 µM, first compound 1 µM
[5] = second compound 0.316 µM, first compound 0.0316 µM
[6] = second compound 0.316 µM, first compound 0.1 µM
[7] = second compound 0.316 µM, first compound 0.316 µM
[8] = second compound 0.316 µM, first compound 1 µM
[9] = second compound 1 µM, first compound 0.0316 µM
[10] = second compound 1 µM, first compound 0.1 µM
[11] = second compound 1 µM, first compound 0.316 µM
[12] = second compound 1 µM, first compound 1 µM
[13] = second compound 3.16 µM, first compound 0.0316 µM
[14] = second compound 3.16 µM, first compound 0.1 µM
[15] = second compound 3.16 µM, first compound 0.316 µM
[16] = second compound 3.16 µM, first compound 1 µM
[17] = second compound 10 µM, first compound 0.0316 µM
[18] = second compound 10 µM, first compound 0.1 µM
[19] = second compound 10 µM, first compound 0.316 µM
[20] = second compound 10 µM, first compound 1 µM

| SMILES | IC50 (second compound 0.1 µM) | IC50 (second compound 0.316 µM) | IC50 (second compound 1 µM) | IC50 (second compound 3.16 µM) | IC50 (second compound 10 µM) | viability, T/C [1] | viability, T/C [2] | viability, T/C [3] | viability, T/C [4] | viability, T/C [5] | viability, T/C [6] | viability, T/C [7] | viability, T/C [8] | viability, T/C [9] | viability, T/C [10] | viability, T/C [11] | viability, T/C [12] | viability, T/C [13] | viability, T/C [14] | viability, T/C [15] | also measured |
| --- | --- | --- | --- | --- | --- | --- | --- | --- | --- | --- | --- | --- | --- | --- | --- | --- | --- | --- | --- | --- | --- |
| CC(C)c1c(-c2ccccc2)nc2c(C#N)c[nH]n2c1=O + CC(CO)NC(=O)c1cc(-c2ccc(Cl)cc2)nn(-c2cnn(C)c2)c1=O | > 10000 nM | > 10000 nM | > 10000 nM | > 10000 nM | > 10000 nM | 109% | 116% | 121% | 113% | 113% | 129% | 123% | 111% | 109% | 124% | 119% | 113% | 115% | 124% | 131% | viability, T/C (second compound 0.1 µM, first compound 3.16 µM): 119%; viability, T/C (second compound 0.1 µM, first compound 10 µM): 111%; viability, T/C (second compound 0.316 µM, first compound 3.16 µM): 113%; viability, T/C (second compound 0.316 µM, first compound 10 µM): 115%; viability, T/C (second compound 1 µM, first compound 3.16 µM): 113%; viability, T/C (second compound 1 µM, first compound 10 µM): 116%; viability, T/C [16]: 113%; viability, T/C (second compound 3.16 µM, first compound 3.16 µM): 120%; viability, T/C (second compound 3.16 µM, first compound 10 µM): 120%; viability, T/C [17]: 110%; viability, T/C [18]: 113%; viability, T/C [19]: 107%; viability, T/C [20]: 110%; viability, T/C (second compound 10 µM, first compound 3.16 µM): 113%; viability, T/C (second compound 10 µM, first compound 10 µM): 110% |
| CC1COCCN1c1cc(-c2ccnn2C)c2ccnc(-c3ccn[nH]3)c2n1 (stereo not given) + CC(CO)NC(=O)c1cc(-c2ccc(Cl)cc2)nn(-c2cnn(C)c2)c1=O | 526 nM | 778 nM | 615 nM | 384 nM | 860 nM | 114% | 91.9% | 53.6% | 45.4% | 112% | 96% | 59.7% | 47.8% | 122% | 89.8% | 56.2% | 45.5% | 121% | 86.9% | 51.6% | viability, T/C (second compound 0.1 µM, first compound 0.00316 µM): 118%; viability, T/C (second compound 0.1 µM, first compound 0.01 µM): 117%; viability, T/C (second compound 0.316 µM, first compound 0.00316 µM): 133%; viability, T/C (second compound 0.316 µM, first compound 0.01 µM): 124%; viability, T/C (second compound 1 µM, first compound 0.00316 µM): 123%; viability, T/C (second compound 1 µM, first compound 0.01 µM): 126%; viability, T/C (second compound 3.16 µM, first compound 0.00316 µM): 121%; viability, T/C (second compound 3.16 µM, first compound 0.01 µM): 122%; viability, T/C [16]: 46.2%; viability, T/C (second compound 10 µM, first compound 0.00316 µM): 121%; viability, T/C (second compound 10 µM, first compound 0.01 µM): 124%; viability, T/C [17]: 115%; viability, T/C [18]: 74.5%; viability, T/C [19]: 57.6%; viability, T/C [20]: 45.9% |
